# In US7566805B2, “Modafinil compositions” (priority 2003, dated 2009):
# Read-outs that look alike come from different tables or passages of the source.
# How the values were obtained:
# [1] = cited from earlier work
# [2] = cited from earlier work; remark: listed apart in the source
# [3] = Dog pharmacokinetic study of a single intravenous dose of R-(−)-modafinil vs racemic modafinil; type: in vivo; details: dogs; for AUC(0-inf) / Cmax / Vd / clearance / half-life: dog, plasma, 5 mg/kg IV, Mean
# Description: A dog pharmacokinetic study (N=6) of a single intravenous dose of R-(−)-modafinil was completed. The purity of the R-(−)-modafinil in the administered formulation was ca 80 percent. This formulation was compared to a formulation of racemic modafinil, also administered by the intravenous route to the same dogs in a crossover design. Ir. Table VII, “Cmax” is the maximum blood plasma concentration, “AUC (inf)” is the extrapolated area under the curve, “t1/2” is the amount of time for the blood plasma level to decrease to half of the Cmax level beginning at administration, “Vd” is the volume of distribution, and “CL” is the clearance rate of modafinil.
# [4] = dogs, 30 mg/kg oral dose, plasma 2 to 9 hours post-dose, cited from earlier work; for Mean AUC (sulfone): sulfone metabolite
# [5] = Racemic modafinil:malonic acid co-crystal pharmacokinetic study in dogs (vs micronized pure modafinil); type: in vivo
# Method: As a reference, micronized modafinil with a median particle size of about 2 micrometers was also administered in the study.
# [6] = Pharmacokinetic study with dogs: modafinil:malonic acid formulated with lactose vs PROVIGIL tablets; type: in vivo
# Description: In Table VI, “Cmax” is the maximum blood plasma concentration, “AUC (inf)” is the extrapolated area under the curve, “t1/2” is the amount of time for the blood plasma level to decrease to half of the Cmax level beginning at administration, “Tmax” is the time to maximum blood plasma concentration from administration, “CL” is the clearance rate of modafinil, and “F %” is the percent bioavailability.
# [7] = Solid-state stability of modafinil:malonic acid co-crystal at various temperatures and relative humidities; type: physicochemical; details: for degradation / degradation per day: four week period
# Method: At 60 degrees C., about 0.14 percent degradation per day was determined based on a simple exponential model. At 80 degrees C., about 8 percent degradation per day was determined.
# FIGS. 49 and 50 show the % area impurities as measured via HPLC versus time (weeks) for samples stored at various conditions including: 25 degrees C., 60% RH; 40 degrees C., 75 percent RH; 40 degrees C., ambient RH; 60 degrees C., ambient RH; 80 degrees C., ambient RH; and −20 degrees C.
# [8] = In vitro dissolution in simulated gastric fluid (SGF) and simulated intestinal fluid (SIF); details: micronized, blended with lactose, HPMC capsules
# Description: Further aqueous solubility can be measured in simulated gastric fluid (SGF) or simulated intestinal fluid (SIF) rather than water.
# Both samples were blended with lactose and filled into HPMC capsules.
# [9] = Dynamic vapor sorption isotherm; type: physicochemical; details: up to at least 40 percent RH at 26 degrees C.
# [10] = second value listed in the cell
Molecule,"pKa Values [1, 10]",pKa Values ([1]; first value listed in the cell),also measured
CC1(C(=O)O)CCC(C(=O)O)C1(C)C (stereo not drawn) [Camphoric acid],5.83,,
CCCCCCCCCCCC(=O)O [Lauric acid],,~4.5,
CCCCCCCCCCCCCCCC(=O)O [Palmitic acid],,4.9,
N[C@@H](Cc1c[nH]c2ccccc12)C(=O)O [Tryptophan],9.39,,
N[C@@H](Cc1ccccc1)C(=O)O [Phenylalanine],~9,~2,
"NC(=O)C[S+]([O-])C(c1ccccc1)c1ccccc1 (racemic) [Racemic Modafinil, (±)-2-[(Diphenylmethyl)sulfinyl]acetamide]",,,"solubility in water [2]: practically insoluble; AUC(0-inf) [3]: 15100 ng·h/mL; Cmax [3]: 8680 ng/mL; Vd [3]: 0.589 L/kg; clearance [3]: 5.68 mL/min/kg; half-life [3]: 1.05 h; Mean AUC (racemate) [4]: 46760 ± 6950 ng·h/mL; Mean AUC (sulfone) [4]: 35120 ± 6930 ng·h/mL; half-life ([5]; dog, in vivo): 2.1 ± 0.7 h; Cmax ([5]; dog, in vivo, median particle size 2 micrometers (pure modafinil), 16 micrometers (co-crystal)): 11000 ± 5900 ng/mL; Tmax ([5]; dog, in vivo, read-out: Tmax): 1.3 ± 0.6 h"
"Nc1ccc(C(=O)O)c(O)c1 [Salicylic acid, 4-amino]",10,3.25,pKa Values ([1]; third value listed in the cell): 3.5
Nc1ncnc2nc[nH]c12 [Adenine],,3.8,
Cc1cc(N)c2ccccc2c1O [Vitamin K5],,~9,melting point: 280 to 282 °C (dec.)
CC[C@H](C)[C@H](N)C(=O)O [Isoleucine],9.76,2.32,
"NC(=O)C[S@+]([O-])C(c1ccccc1)c1ccccc1 [Example 40-983, S-(+)-2-[(Diphenylmethyl)sulfinyl]acetamide]",,,Mean AUC (racemate) [4]: 50940 ± 8770 ng·h/mL; Mean AUC (sulfone) [4]: 83120 ± 21660 ng·h/mL
Imidazole,,6.92,
N[C@@H](CS)C(=O)O [Cysteine],8.33,1.71,pKa Values ([1]; third value listed in the cell): 10.78
NC1[C@H](O)OC(CO)[C@@H](O)[C@H]1O (stereo partly drawn) [Glucosamine],,6.91,
CN(C)CC(=O)O [Dimethylglycine],,2.5,
Nc1ccc(C(=O)O)cc1 [4-aminobenzoic acid],,4.7,
Oc1ncnc2[nH]ncc12 [Allopurinaol],,10.2,
Acetohydroxamic acid,,8.7,

Molecule,"pKa Values [1, 10]",pKa Values ([1]; first value listed in the cell),also measured
O=C(O)c1cc(=O)[nH]c(=O)[nH]1 [Orotic acid],8.95,5.85,
NC(=O)C[C@H](N)C(=O)O [Asparagine],8.5,2.02,
O=C(O)CCCC(=O)O [Glutaric acid],4.5,2.7,
NC(=O)c1cccnc1 [Nicotinamide],,3.3,
C[C@@H](O)[C@H](N)C(=O)O [Threonine],9.12,2.15,
Racemic Modafinil:Malonic Acid Co-crystal [Modafinil: malonic acid co-crystal],,,"CL ([6]; 200 mg modafinil, Mean): 368.33; Tmax ([6]; 200 mg modafinil, Mean): 2 h; AUC (inf) ([6]; 200 mg modafinil, Mean, extrapolated, in ng·h/mL): 50545.00; Cmax ([6]; 200 mg modafinil, Mean, in ng/mL): 11246.67; F % ([6]; 200 mg modafinil, Mean, percent bioavailability): 81.57%; Cmax compared with PROVIGIL tablets ([6]; FIG. 56): increased; degradation ([7]; 20 degrees C.): No degradation; degradation ([7]; 40 degrees C.): No degradation; degradation per day ([7]; 60 degrees C., simple exponential model): about 0.14 percent degradation per day; degradation per day ([7]; 80 degrees C.): about 8 percent degradation per day; stability on storage (% area impurities via HPLC) ([7]; stored at or below 40 degrees C. for at least 26 weeks): stable; release of modafinil into solution vs free form of modafinil ([8]; SGF): more quickly; release of modafinil into solution vs free form of modafinil ([8]; SIF): more quickly; water adsorption (DVS) [9]: no appreciable water adsorption; AUC higher than that of the pure modafinil [5]: 40 to 60%; Tmax [5]: 1.7 ± 0.6 h"
CC(C)[C@H](N)C(=O)O [Valine],~9,~4.5,
O=C(O)[C@@H](O)[C@H](O)[C@H](O)[C@@H](O)C(=O)O [Galactaric acid],3.63,,
Cc1ncc(CO)c(CN)c1O [Pyridoxamine],,~9,
Nc1ccncc1 [4-aminopyridine],,10,
N=C(N)NCCC[C@H](N)C(=O)O [Arginine],9.09,2.18,
Urea,,~8,
Cc1ncc(CO)c(CO)c1O [Pyridoxine],,~9,
"NC(=O)C[S@@+]([O-])C(c1ccccc1)c1ccccc1 [R-(−)-modafinil, R-(−)-2-[(Diphenylmethyl)sulfinyl]acetamide]",,,AUC(0-inf) [3]: 15900 ng·h/mL; Cmax [3]: 7810 ng/mL; Vd [3]: 0.647 L/kg; clearance [3]: 5.67 mL/min/kg; half-life [3]: 1.53 h; difference in pharmacokinetics vs racemic modafinil ([3]; intravenous administration): no significant difference; Mean AUC (racemate) [4]: 97220 ± 12580 ng·h/mL; Mean AUC (sulfone) [4]: 8690 ± 1220 ng·h/mL
CCOc1ccc(NC(N)=O)cc1 [4-ethoxyphenyl urea],,~7-9,
OC[C@@H](O)[C@H](O)[C@@H](O)CO [Xylitol],,~9,
O=C(O)[C@H](O)[C@@H](O)[C@H](O[C@@H]1O[C@H](CO)[C@H](O)[C@H](O)[C@H]1O)[C@H](O)CO [Lactobionic acid],,3.2,
